The text below walks through data of publication PMC10644342, “Improved Antibacterial Activity of 1,3,4-Oxadiazole-Based Compounds That Restrict Staphylococcus aureus Growth Independent of LtaS Function” (ACS Infectious Diseases, 2023).

≈ marks a conversion by molar mass, not a printed value.

For one data set, the system named is LtaS. Further details: method as in PMID 29300473. As to conditions: LtaS in artificial liposomes; cited from earlier work.
Data set [1] concerns S. aureus wild type, clpX, ltaS, tarO mutants and ltaS overexpression strains. Briefly: MIC against LtaS deletion and overexpression strains. It counts as cell-based, Staphylococcus aureus. As to conditions: Staphylococcus aureus, NEWMAN. How it is done: S. aureus, S. epidermidis, E. faecalis, and E. faecium strains were routinely cultivated on tryptic soy agar (TSA) and grown for 18 h at 37 °C. S. aureus single colonies were subsequently transferred into 2 mL of tryptic soy broth (TSB) and grown for a further 18 h at 37 °C while being shaken at 180 rpm. S. pyogenes, S. agalactiae, and S. dysgalactiae strains were routinely cultured on TSA supplemented with 5% sheep blood and grown for 18 h at 37 °C with 5% CO2. E. coli was grown in LB broth at 37 °C. For LtaS-deficient strains, TSB was supplemented with 0.5 M NaCl to provide an osmotically balanced environment and instead grown at 30 °C. For strains harboring the pRMC2 tetracycline inducible vector,[61] the growth medium was supplemented with 10 μg/mL chloramphenicol and […] anhydrotetracycline hydrochloride (Sigma). Phenylalanine-arginine β-naphthylamide (PAβN) (Sigma) was dissolved in sterile water.
B. subtilis, staphylococcal, and enterococcal strains were grown in Mueller Hinton broth (MHB), while streptococcal strains were grown in MHB supplemented with 5% laked horse blood. All strains were grown for 18 h at 37 °C. The overnight cultures were subsequently subcultured 1:200 and grown to the exponential phase (OD600nm = 0.5–0.6) in fresh broth. 1771 and its derivatives 9–14 were reconstituted in DMSO and further diluted by performing a 1:2 serial dilution ranging between 256 and 0.125 μg/mL in a 96-well microtiter plate. One hundred microliters of 0.5 McFarland standardized inoculum (approximately equal to 5 × 10^5 cfu) were then dispensed into each well in the 96-well microtiter plate. The plate was incubated for 18 h at 37 °C.
For overexpression studies, full-length ltaS was amplified by PCR using MRSA strian LAC genomic DNA, primer pair LtaS-FW: 5′-[…]-3′ and LtaS-RV: 5′-[…]-3′, and Phusion High-Fidelity DNA Polymerase (Thermo Fisher). The resulting PCR product was cloned into the tetracycline inducible plasmid pRMC2 using SacI and KpnI restriction sites and T4 ligase (NEB). The cloned vector was subsequently transformed into RN4220 followed by LAC through electroporation.

The subject of another data set is S. aureus. Set-up: method as in PMID 23401520. As to conditions: cited from earlier work.
The next data set concerns HL-60 cell line. As to conditions: cited from earlier work.

As for `Nc1c(/N=N/c2ccc(-c3ccc(/N=N/c4cc(S(=O)(=O)O)c5ccccc5c4N)cc3)cc2)cc(S(=O)(=O)O)c2ccccc12` [Congo red], in the data set with LtaS, the “inhibition of LtaS polymerization activity” value was “blocked LtaS function”. Further, the MIC (commonly the lowest concentration that inhibits growth of the organism) in data set [1] is more than 512 µg/mL; in data set [1] (Newman ΔtarO), 64 µg/mL (≈ 98.1 µM); in data set [1] (Newman ΔtarO pRMC2 (empty vector)), 64 µg/mL (≈ 98.1 µM); in data set [1] (Newman ΔtarO pltaS (ltaS overexpression)) it was 256 µg/mL (≈ 392 µM).
On to `[H]/N=C(/N)N[C@H]1[C@H](O)[C@@H](O)[C@H](O[C@@H]2O[C@@H](C)[C@](O)(C=O)[C@H]2O[C@@H]2O[C@@H](CO)[C@H](O)[C@@H](O)[C@@H]2NC)[C@@H](N/C(N)=N\[H])[C@@H]1O` [streptomycin], for which the “frequency of mutant selection” value with S. aureus is on record as < 10^–7. In the data set on HL-60 cell line, the “Cell health index (CHI)” value is reported as 0.19.
